According to US9675712B2, “pH sensitive fluorescent polydiacetylene liposome and delivery vehicle comprising same” (priority 2012, dated 2017):

Tested on: E. coli 0-157(ATCC 43894)
Assay: Anti-bacterial analysis of drug release in vitro (plaque / growth inhibition area on agar plate)
Type: cell-based
Settings: dish (c): standard solution in PBS; 20 μl, 37° C. overnight
Description: In order to prepare an LB broth and an agar medium, 12.5 g of the LB broth and 7.5 g of the plant agar were transferred to 1 L sterile flask. The components were dissolved in 500 mL of distilled water or deionized water, and flask was tightly covered with an aluminum foil, a plug or a cap similar thereto. The mixture was heated until a boiling point was reached to dissolve the agar, and sterilized by autoclave at 121-124° C. for 15 mins, and then waited until the autoclave was cooled and a pressure was 0. The medium was removed from the autoclave and cooled to room temperature. When the LB agar was cooled to a temperature (approximately 45° C.) which is still considered hot by touch, 0.5 cm or ¼ layer of agar was poured into the Petri dish. It corresponds to approximately 20 to 25 mL volumes of the agar. The Petri dish was positioned on a flat surface until the agar was completely solidified for 30 to 40 mins. The Petri dish containing the solid agar was stored at 4° C.
300 μl of bacteria (E. coli) was added to 3.0 mL of the LB broth, and the culture fluid was strongly shaken. Then, the culture fluid was cultured in an incubator shaking the bacteria at 37° C. overnight. […]
First, a growth inhibition area (plaque) will be shown in the fusible bacterial habitat in the case in which the drug is smoothly released from the liposome. […] Third, the analysis method needs to be quantitative.

SMILES: CC1(C)S[C@@H]2[C@H](NC(=O)[C@H](N)c3ccccc3)C(=O)N2[C@H]1C(=O)O [ampicillin standard solution, ampicillin]
- growth inhibition area: growth inhibition area was generally observed
